Source: paper PMC3493464, “Functional Analysis of Metabolic Channeling and Regulation in Lignin Biosynthesis: A Computational Approach” (PLoS Computational Biology, 2012)

Key:
[1] = molecular target: T1, CCoAOMT (caffeoyl CoA O-methyltransferase) (Medicago sativa, UniProt Q40313); test: HPLC assay of feruloyl CoA formation; type: biochemical; conditions: putative activator; 2 µM caffeyl aldehyde, 20 µM caffeoyl CoA, 200 µM S-adenosyl methionine, 600 µM MgCl2, 2 mM DTT, 4% DMSO, pH 7.5, 30 °C
T1 construct: gene CCOMT; alfalfa cDNA in pET15b, His-tagged, expressed in E. coli Rosetta, Ni-NTA purified; tag removal not mentioned

[2] = molecular target: T1, CCoAOMT (caffeoyl CoA O-methyltransferase); test: HPLC assay of feruloyl CoA formation; type: biochemical; conditions: 20, 30 or 40 µM caffeoyl CoA; 200 µM S-adenosyl methionine, 600 µM MgCl2, 2 mM DTT, pH 7.5, 30 °C

T1 sequence (Q40313 whole entry): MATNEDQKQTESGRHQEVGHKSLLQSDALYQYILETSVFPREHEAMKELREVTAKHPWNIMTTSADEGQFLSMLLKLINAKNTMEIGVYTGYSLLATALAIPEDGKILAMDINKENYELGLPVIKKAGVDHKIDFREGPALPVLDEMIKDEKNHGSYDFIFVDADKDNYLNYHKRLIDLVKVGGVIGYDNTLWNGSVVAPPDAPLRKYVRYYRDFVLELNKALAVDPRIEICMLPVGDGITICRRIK

SMILES | % increase in activity at 2 μM [1] [%] | HPLC assay of feruloyl CoA formation [2]
O=C/C=C/c1ccc(O)c(O)c1 [caffeyl aldehyde] | 16 | 
CC(C)(COP(=O)(O)OP(=O)(O)OC[C@H]1O[C@@H](n2cnc3c(N)ncnc32)[C@H](O)[C@@H]1OP(=O)(O)O)[C@@H](O)C(=O)NCCC(=O)NCCSC(=O)/C=C/c1ccc(O)c(O)c1 [caffeoyl CoA] |  | assayed the purified recombinant enzyme with caffeoyl CoA as substrate
